Results reported in patent US9878041B2, “Cyanoacrylate tissue adhesives” (Adhezion Biomedical, LLC, priority 2007, dated 2018).

Experiments:
Escherichia coli = experiment: Antibacterial activity by agar diffusion method; assay type: cell-based; parameters: key: c: Inhibition of growth not observed; details: 10 mg sample
Description: Antibacterial activity of polymyxin B-loaded PBCA nanoparticles was measured indirectly by the agar diffusion method. 30 ml of nutrient agar was added into each of four culture plates (90 mm diameter, 15 mm high). After solidifying, a cylindrical hole (13 mm in diameter) was made in the center of the plate and the contents were removed. 10 mg of polymyxin B, PBCA nanoparticles, and two polymyxin B-loaded PBCA nanoparticles (Poly BIPBCA-1 and 2) were added into a hole of each plate, respectively and a few drops of molten agar were added to fix the samples. The plate were inoculated with Escherichia coli and incubated at 37° C. for 24 hours and the zone of inhibition was determined (FIGS. 13A-13D).
To evaluate the duration of antibacterial activity of each sample, the content of each hole was removed after 24 hours of incubation and transferred to a hole of a freshly prepared plate, incubated again for 24 hours and the zone of inhibition measured. This procedure was continuously repeated until the inhibition of growth was no longer observed.

Human dermal fibroblasts = experiment: Cell adhesion to polymerized cyanoacrylates (live/dead staining); assay type: cell-based; details: 48 hours culture; FIG. 10
Description: 2 μl aliquots of various cyanoacrylate formulations with and without PEG were applied to thin collagen films in 24 well plates and allowed to cure overnight at room temperature. Human dermal fibroblasts were seeded on the collagen film/polymerized adhesive surfaces at 8×10^4 cells/well and cultured for 48 hours. The cells were stained with fluorescein diacetate and propidium iodide to visualize live (green) and dead (red) cells respectively. FIGS. 10A (OCA+MCA), 10B (OCA+MCA/PEG), 10E (MCA), and 10F (MCA/PEG) are phase contrast images (black and white) showing the interface between the cyanoacrylate adhesives and the surrounding collagen films and corresponding fluorescent images FIGS. 10C (OCA+MCA), 10D (OCA+MCA/PEG), 10G (MCA), and 10H (MCA/PEG) showing the location of adherent cells.

[1] = In vitro accelerated degradation study of cured adhesive films; assay type: physicochemical; details: thin films in 0.05N NaOH, 37° C., 3, 7, 14 and 21 days; FIG. 1
Description: In vitro accelerated degradation studies have been performed to evaluate the degradation rate of various cyanoacrylate adhesives formulated with PEG and without PEG. 20 μl of cyanoacrylate (CA) derivatives and CA derivatives/PEG (MW=600) formulations were spread as a thin layer on the glass microscope slides and allowed to cure overnight at room temperature. […] The films were collected at 3, 7, 14, and 21 days and washed with distilled water two times. The washed films were freeze-dried and weighed (W1) (n=3). […] 2. Tissue Bond Strength Study

[2] = test system: hind limb muscles of adult Sprague-Dawley rats; experiment: In vivo biocompatibility and degradation, macroscopic and IHC, incision closure
Text: Small surgical incisions (0.2 cm in depth, 1 cm in length) were made in both hind limb muscles of adult Sprague-Dawley rats (n=4). One incision was closed by 1 drop of various cyanoacrylate formulations dispensed through a surgical syringe needle (25 G) and the other was closed by absorbable suture (VICRYL, Ethicon) with and without injection of equivalent volumes of PEG included in cyanoacrylate formulations as controls. In order to ensure proper identification of the injury sites, a single non-absorb-able suture was placed adjacent to each repaired incision site.
At 7 days, 4 weeks, and 12 weeks post-surgery, tissue explants containing the repaired incision sites and surrounding muscle tissue were retrieved. The explants were photographed to document the macroscopic tissue response to the various cyanoacrylate formulations and suture controls (FIGS. 3A-3H (7 days), 4A-4H (4 weeks), and 5A-5H (12 weeks)). Identification of specific cells types associated with wound healing and inflammation was performed by histological sectioning and immunohistochemical (IHC) staining. Tissue explants were embedded in Optimal cutting temperature (OCT) compound and sectioned perpendicular to the surface of the repaired muscle tissue. Sections ([…] thick) were transferred to glass microscope slides, fixed with methanol, permeabilized with 0.025% Triton in PBS solution, and stained with primary antibodies directed against vimentin (fibroblasts) and rat macrophages, and Alexa-594 conjugated secondary antibodies. DAPI mounting media was used to counterstain all cellular nuclei. Samples were imaged by fluorescence microscopy (FIGS. 6A-6P, 7A-7P, 8A-8P). Specific cell types are identified in red, sutures and various cyanoacrylate adhesives are shown in green, and cellular nuclei are shown in blue. […]

[3] = test system: Human dermal fibroblast (HDF) cells; experiment: In vitro cytotoxicity of adhesive-conditioned media (MTT assay); assay type: cell-based; details: ACM collected at 2 days; HDF cultured 2 days; FIG. 9
Description: 2 μl of various CA formulations were applied on thin collagen films in 12 well plates and allowed to polymerize completely overnight at room temperature. One ml of […] (DMEM) including 10% Serum and 1% Penicillin/Streptomycin was added into each well and incubated at 37° C. in a humidified CO2 incubator to simulate adhesive degradation. Media samples were collected at 2, 7, and 14 days and these adhesive-conditioned media (ACM) were stored at −20° C. until use. Human dermal fibroblast (HDF) cells were seeded in new 12-well culture plates at a density of 8×10^4 cells/well and cultured for 24 hours to allow cell attachment. The media was replaced with the stored ACM and cultured for 2 days at 37° C. to evaluate the in vitro cytotoxicity of the various CA derivatives. Cell cytotoxicity by the degraded CA adhesives in ACM was evaluated by MTT assay. The principle of this assay is the addition of a dye which is degraded by enzymes present in living cells, resulting in the formation of a colored product. The product concentration, which is generally directly proportional to the number of viable cells, is assayed by spectrophotometry.

[4] = 4 weeks post-surgery, one value per rat
[5] = 7 days post-surgery, one value per rat
[6] = 7 days post-surgery, one value per rat (Rat No. 1-4), star grades not defined
[7] = Table IV, 4 weeks post-surgery (12 weeks), one value per rat

Compound	Inhibition zone: Diameter (mm) (Escherichia coli; day 1, includes original 13 mm sample size)	Inhibition zone: Diameter (mm) (Escherichia coli; day 2 (sample moved to fresh plate every 24 hours), includes 13 mm sample size)	Inhibition zone: Diameter (mm) (Escherichia coli; day 3, includes 13 mm sample size)	Inhibition zone: Diameter (mm) (Escherichia coli; day 4, includes 13 mm sample size)	Inhibition zone: Diameter (mm) (Escherichia coli; day 5, includes 13 mm sample size)	Inhibition zone: Diameter (mm) (Escherichia coli; day 6)	fibroblast adhesion to polymerized adhesive surface (Human dermal fibroblasts)	% degradation in vitro [1]	Degree of inflammation [2, 4]	Vessel formation [2, 4]	Vessel formation [2, 5]	Degree of inflammation [2, 6]	Degree of inflammation [2, 7]	Vessel formation [2, 7]	No. of macrophages ([2]; Table IV, 4 weeks post-surgery (12 weeks), one value per rat, IHC)	cytotoxicity of adhesive-conditioned media (% cell viability) [3]	macroscopic inflammation and swelling of tissue explants ([2]; 7 days post-surgery)
Polymyxin B	36	38.3	28	25.1	22	c	–	–	–	–	–	–	–	–	–	–	–
methoxyisopropylcyanoacrylate [MCA]	–	–	–	–	–	–	readily adhered in large numbers	significantly increased degradation	no	no	no	no	no	no	0	–	–
C=C(C#N)C(=O)OCCCCCCCC [OCA, octylcyanoacrylate]	–	–	–	–	–	–	–	–	–	no	no	no	no	no	–	not cytotoxic except for the ACM from OCA	mild inflammation and swelling
